Key:
cultured rat astrocytes = test: Cell survival after H2O2, FDA fluorescence; format: cell-based
Protocol: Secondary cultures of rat cortical astrocytes were prepared as previously described [64]with minor modifications. Briefly, cerebral hemispheres from newborn Wistar rats were collected in DMEM/F12 (2∶1; v/v) culture medium supplemented with 2 mM L-glutamine, 1‰ insulin, 5 mM HEPES, 0.4% glucose and 1% of the antibiotic-antimycotic solution. The tissues were dissociated mechanically with a syringe equipped with a 1-mm gauge needle, and filtered through a 100-µm sieve (Falcon, Franklin Lakes, NJ, USA). […] When cultures were confluent, astrocytes were isolated by shaking overnight the flasks on an orbital agitator. Adhesive cells were detached by trypsination and preplated for 5 min to discard contaminating microglial cells. Then, the non-adhering astrocytes were harvested and plated on 35-mm hydrophilic surface Petri dishes at a density of 3×10^5 cells/ml. […] The cells were incubated at 37°C in a humid atmosphere (5% CO2). […] All experiments were performed on 5- to 7-day-old secondary cultures.
Cultured cells were incubated at 37°C with fresh serum-free culture medium in the absence or presence of H2O2 and/or ODN for 1 h. Cells were then incubated for 10 min at 37°C with 0.3 µg/ml calcein-AM (producing green fluorescence in living cells), rinsed twice with culture medium without probe and examined on an inverted microscope (Leica, Heidelberg, Germany) equipped with a double pass filter.
For quantification of surviving astrocytes, cells were incubated for 8 min with 15 µg/ml FDA-AM, rinsed twice with phosphate-buffered saline (PBS) and lysed with a Tris/HCl solution containing 1% sodium dodecyl sulfate (SDS). Fluorescence was measured with excitation at 485 nm and emission at 538 nm, using a microplate reader (Bio-Tek FLx 800).

[1] = test system: glutathione (GSH) in cultured astrocytes; test: Intracellular glutathione content, mBCl fluorescence; format: cell-based, rat
Protocol: Secondary cultures of rat cortical astrocytes were prepared as previously described [64]with minor modifications. Briefly, cerebral hemispheres from newborn Wistar rats were collected in DMEM/F12 (2∶1; v/v) culture medium supplemented with 2 mM L-glutamine, 1‰ insulin, 5 mM HEPES, 0.4% glucose and 1% of the antibiotic-antimycotic solution. The tissues were dissociated mechanically with a syringe equipped with a 1-mm gauge needle, and filtered through a 100-µm sieve (Falcon, Franklin Lakes, NJ, USA). Dissociated cells were resuspended in culture medium supplemented with 10% FBS, plated in 175-cm^2 flasks (Greiner Bio-one GmbH, Frickenhausen, Germany) and incubated at 37°C in a 5% CO2/[…] atmosphere. When cultures were confluent, astrocytes were isolated by shaking overnight the flasks on an orbital agitator. Adhesive cells were detached by trypsination and preplated for 5 min to discard contaminating microglial cells. Then, the non-adhering astrocytes were harvested and plated on 35-mm hydrophilic surface Petri dishes at a density of 3×10^5 cells/ml. For measurement of cell survival, caspase-3 activity and mitochondrial activity, cells were plated in hydrophilic surface 24-well plates at a density of 8×10^4 cells/ml. The cells were incubated at 37°C in a humid atmosphere (5% CO2). After 5 days (DIV5), more than 99% of the cells were labeled with antibodies against glial fibrillary acidic protein [65]. All experiments were performed on 5- to 7-day-old secondary cultures.
Reduced GSH was measured by using the thiol-reactive probe mBCl. At the end of the treatment period, the culture medium was removed and the cells were incubated with the mBCl probe (40 µM) at 37°C for 30 min and then washed twice with PBS. Fluorescence intensity was measured with excitation at 360 nm and emission at 485 nm, using a microplate reader (Bio-Tek FLx 800).

## ODN: octadecaneuropeptide, endozepine derived from diazepam-binding inhibitor; endogenous ligand of central-type benzodiazepine and metabotropic receptors; synthesized by Fmoc procedure (QATVGDVNTDRPGLLDLK; Octadecaneuropeptide; UniProt P11030 34-51, looked up)
Cultured rat astrocytes; ODN 0.1 nM, 300 µM H2O2, FDA fluorescence
  time-course of protection against H2O2-induced cell injury: totally blocked H2O2-induced cell injury during the first 60 min
Cultured rat astrocytes; ODN 0.1 nM, refills of 0.1 nM after 30, 60, 90, 120 and 150 min, 300 µM H2O2
  duration of the protective effect with fresh doses of peptide: ≥ 150 min
Cultured rat astrocytes; ODN 0.1 nM, 10 min pre-incubation, 1 h 300 µM H2O2, FDA fluorescence
  maximum effect (survival): ~95%
Cultured rat astrocytes; single dose of ODN 0.1 nM, 300 µM H2O2
  time after onset of peptide administration at which the protective action vanished: 180 min
Cultured rat astrocytes; time-course, ODN 0.1 nM, 300 µM H2O2
  delay of H2O2-induced cell death: approximately 1 h
[1]; ODN 0.1 nM pretreatment, 1 h 300 µM H2O2
  effect on H2O2-induced depletion of GSH (mBCl fluorescence): prevented the depletion of mBCl fluorescence induced by H2O2
[1]; graded ODN 1 fM to 0.1 nM, 1 h
  effect on intracellular GSH content (mBCl fluorescence), peptide alone: dose-related increase in mBCl fluorescence intensity

— publication PMC3424241, “The Octadecaneuropeptide ODN Protects Astrocytes against Hydrogen Peroxide-Induced Apoptosis via a PKA/MAPK-Dependent Mechanism” (PLoS ONE, 2012)
